Results from patent publication US20050130252A1, “Stabilized susceptibility tests of aerobic pathogens” (Wyeth Holdings Corporation, priority 2003, published 2005).
Values after ≈ are worked out from the molar mass of the structure shown. Read-outs that look alike come from different tables or passages of the source.

What was measured:
[1] = tested on: ATCC reference strains; experiment: Broth microdilution MIC, reference strains taken together; type: cell-based
Description: The MICs for TGC were determined under various conditions by broth microdilution using NCCLS procedures. The MHB was stored at 2° C., room temperature, anaerobically and with the addition of Oxyrase® to determine the effect of various conditions. Time Kill kinetics was used to confirm MIC differences observed with the broth microdilution for aged and fresh media results.
(§1) The in vitro activities of tigecycline and control antibiotics were determined by the broth microdilution method as recommended by the NCCLS. (National Committee for Clinical Laboratory Standards, 2003. Methods for Dilution Antimicrobial Susceptibility Tests for Bacteria That Grow Aerobically; Approved Standards: M7-A6, Sixth ed, vol. 23., National Committee for Clinical Laboratory Standards Wayne, Pa.) was used for the standard procedures. MBH with 5% lysed horse blood was used for testing S. pneumoniae and Haemophilus Test Medium was used for testing H. influenzae. Oxyrase® (Oxyrase Inc, Mansfield, Ohio) was used according to the manufacturer's instructions by adding 1 ml of Oxyrase® to 50 ml of media. Media age studies were performed by preparing MHB in multiple flasks, then storing the media under various conditions. MICs were usually performed in duplicate on each day of testing. Storage under anaerobic conditions was conducted in an anaerobic chamber (MACS MG 1000, Don Whitley Scientific LTD). The pH of the media was determined by pH meter (Corning 430). A comparison of the in vitro activity of tigecycline by agar and broth dilution methodolgies with and without Oxyrase® against clinical isolates is shown in Table 1.
To determine the effect of media age on the in vitro activity of tigecycline, MHB was prepared and stored at room temperature or 2° C. for 28 days. […] The aging of the media was slowed somewhat in the media stored at […] compared to the media stored at room temperature.

[2] = tested on: Enterococcus faecalis GC2267 tet(L) + (M) + (S); experiment: Agar dilution in vitro activity; type: cell-based; conditions: E. faecalis GC2267 tet(L) + (M) + (S)
Description: as §1

[3] = tested on: Staphylococcus aureus GC1079 tet(K); experiment: Agar dilution in vitro activity; type: cell-based; conditions: S. aureus GC1079 tet(K)
Description: as §1

[4] = tested on: P. aeruginosa ATCC 27853; experiment: Broth microdilution MIC; type: cell-based, Pseudomonas aeruginosa; conditions: Pseudomonas aeruginosa, ATCC27853, read-out: Minimal Inhibitory Concentration, P. aeruginosa ATCC 27853
Description: (§2) The process for preparing susceptibility test medium are the following steps: • a. Preparing Mueller Hinton Broth II medium by adding 22 grams powdered media to 1.0 liter distilled water; • b. Autoclaving (121° C., 15 psi, 15 minutes) and cooling the medium; • c. Adding Oxyrase® up to about 10% final volume and keeping at 35-37° C. in an incubator for 30 minutes; • d. Adding about 50 μL to each well of a 96 well microtiter plate; • e. Weighing drug and adding broth to drug to bring up to about (standard 128 μg/ml); • f. Adding 50 μL of the drug to the first column of the titer plate; • g. Diluting by two-fold serial diluting across or down the plate. • h. Preparing a Prompt™ inoculum at 10^8 CFU/ml; • i. Diluting inoculum 1:100 in the broth at […] in 9.9 ml (1:100) is 10^6 colony forming units (CFU) forming the adjusted inoculum; • j. Adding 50 μL of the adjusted inoculum to the wells of the microtiter plate; • k. Incubating the plates at 35-37° C. for 18-22 hours; and • l. Reading, with the unaided eye, the MIC.
as §1

[5] = tested on: S. aureus ATCC 29213; experiment: Broth microdilution MIC; type: cell-based, Staphylococcus aureus; conditions: Staphylococcus aureus
Description: as §2, §1

SMILES: CN(C)c1cc(NC(=O)CNC(C)(C)C)c(O)c2c1C[C@H]1C[C@H]3[C@H](N(C)C)C(O)=C(C(N)=O)C(=O)[C@@]3(O)C(O)=C1C2=O [Tigecycline, tigecycline]
- Increase in the MICs over the four week period of media storage ([1]; ATCC reference organisms, MHB stored 28 days, Table 4): 3 to 4 dilution
- MICs in aged media supplemented with Oxyrase compared with fresh media ([1]; Table 3): nearly identical to those determined in fresh media
- MICs in fresh media supplemented with Oxyrase compared with unsupplemented fresh media ([1]; Table 3): not significantly different
- MICs in commercially prepared media and media aged 2 weeks at RT under room air higher than in freshly prepared media ([1]; Table 6): 1-4 dilutions
- MICs in media stored under anaerobic conditions compared with fresh media ([1]; Table 6): nearly identical to the results obtained in fresh media
- More active in freshly prepared media than in commercially prepared and aged media ([1]; reference strains): 2 to 3 dilution
- MIC ([1]; reference strains, addition of Oxyrase): 0.06 to 0.25 µg/mL (≈ 0.102 to 0.427 µM)
- MIC ([1]; reference strains, aged medium stored under anaerobic conditions prior to testing): 0.03 to 0.12 µg/mL (≈ 0.0512 to 0.205 µM)
- MIC ([1]; reference strains, commercially prepared and aged (7 day old) media from powder): 0.12 to 0.25 µg/mL (≈ 0.205 to 0.427 µM)
- MIC ([1]; reference strains, freshly prepared media): 0.03 to 0.12 µg/mL (≈ 0.0512 to 0.205 µM)
- In Vitro Activity of Tigecycline ([2]; Oxyrase (10%)): 0.12
- In Vitro Activity of Tigecycline ([2]; no Oxyrase): 0.25
- In Vitro Activity of Tigecycline ([3]; Oxyrase (10%)): 0.25
- In Vitro Activity of Tigecycline ([3]; no Oxyrase): 0.5
- MIC ([4]; 2% Oxyrase): 8 µg/mL (≈ 13.7 µM)
- MIC ([4]; No Oxyrase): 16 µg/mL (≈ 27.3 µM)
- MIC ([5]; ATCC29213, 0 h, S. aureus ATCC 29213, Day 0, Pre-prepared media, room temperature, N = 6): 0.25 µg/mL (≈ 0.427 µM)
- MIC ([5]; ATCC29213, 0 h, S. aureus ATCC 29213, Day 0, media Fresh from Powder 2° C., N = 6): 0.12 µg/mL (≈ 0.205 µM)
- MIC ([5]; ATCC29213, 0 h, S. aureus ATCC 29213, Day 0, media Fresh from Powder, room temperature, N = 6): 0.06 to 0.12 µg/mL (≈ 0.102 to 0.205 µM)
- MIC ([5]; ATCC29213, 24 h, S. aureus ATCC 29213, Day 1, Pre-prepared media, room temperature, N = 6): 0.25 µg/mL (≈ 0.427 µM)
- MIC ([5]; ATCC29213, 24 h, S. aureus ATCC 29213, Day 1, media Fresh from Powder 2° C., N = 6): 0.12 µg/mL (≈ 0.205 µM)
- MIC ([5]; ATCC29213, 24 h, S. aureus ATCC 29213, Day 1, media Fresh from Powder, room temperature, N = 6): 0.12 µg/mL (≈ 0.205 µM)
- MIC ([5]; ATCC29213, 168 h, S. aureus ATCC 29213, Day 7, Pre-prepared media, room temperature, N = 6): 0.25 µg/mL (≈ 0.427 µM)
- MIC ([5]; ATCC29213, 168 h, S. aureus ATCC 29213, Day 7, media Fresh from Powder 2° C., N = 6): 0.12 µg/mL (≈ 0.205 µM)
- MIC ([5]; ATCC29213, 168 h, S. aureus ATCC 29213, Day 7, media Fresh from Powder, room temperature, N = 6): 0.25 µg/mL (≈ 0.427 µM)
- MIC ([5]; ATCC29213, 336 h, S. aureus ATCC 29213, Day 14, Pre-prepared media, room temperature, N = 6): 0.25 to 0.5 µg/mL (≈ 0.427 to 0.854 µM)
- MIC ([5]; ATCC29213, 336 h, S. aureus ATCC 29213, Day 14, media Fresh from Powder 2° C., N = 6): 0.25 to 0.5 µg/mL (≈ 0.427 to 0.854 µM)
- MIC ([5]; ATCC29213, 336 h, S. aureus ATCC 29213, Day 14, media Fresh from Powder, room temperature, N = 6): 0.25 to 0.5 µg/mL (≈ 0.427 to 0.854 µM)
- MIC ([5]; ATCC29213, 336 h, read-out: Minimal Inhibitory Concentration, S. aureus ATCC 29213, media Aged Aerobic (2 weeks at RT under room air), N = 4): 0.25 to 0.5 µg/mL (≈ 0.427 to 0.854 µM)
- MIC ([5]; ATCC29213, 504 h, S. aureus ATCC 29213, Day 21, Pre-prepared media, room temperature, N = 6): 0.5 µg/mL (≈ 0.854 µM)
- MIC ([5]; ATCC29213, 504 h, S. aureus ATCC 29213, Day 21, media Fresh from Powder 2° C., N = 6): 0.25 to 0.5 µg/mL (≈ 0.427 to 0.854 µM)
- MIC ([5]; ATCC29213, 504 h, S. aureus ATCC 29213, Day 21, media Fresh from Powder, room temperature, N = 6): 0.25 µg/mL (≈ 0.427 µM)
- MIC ([5]; ATCC29213, 672 h, S. aureus ATCC 29213, Day 28, Pre-prepared media, room temperature, N = 6): 0.25 to 0.5 µg/mL (≈ 0.427 to 0.854 µM)
- MIC ([5]; ATCC29213, 672 h, S. aureus ATCC 29213, Day 28, media Fresh from Powder 2° C., N = 6): 0.25 µg/mL (≈ 0.427 µM)
- MIC ([5]; ATCC29213, 672 h, S. aureus ATCC 29213, Day 28, media Fresh from Powder, room temperature, N = 6): 0.25 µg/mL (≈ 0.427 µM)
- MIC ([5]; ATCC29213, read-out: Minimal Inhibitory Concentration (modal value), S. aureus ATCC 29213, Aged Media + Oxyrase, N = 8): 0.25 µg/mL
